Consider two molecules from BindingDB's records for patent US20240382465 (Zhejiang Hisun Pharmaceutical, 2024).

pIC50: −log10 of the molar value.

The assay concerns the target T1, UDP-3-O-acyl-N-acetylglucosamine deacetylase (Pseudomonas aeruginosa (strain ATCC 15692 / DSM 22644 / CIP 104116 / JCM 14847 / LMG 12228 / 1C / PRS 101 / PAO1), UniProt P47205).
T1 sequence (P47205 whole entry): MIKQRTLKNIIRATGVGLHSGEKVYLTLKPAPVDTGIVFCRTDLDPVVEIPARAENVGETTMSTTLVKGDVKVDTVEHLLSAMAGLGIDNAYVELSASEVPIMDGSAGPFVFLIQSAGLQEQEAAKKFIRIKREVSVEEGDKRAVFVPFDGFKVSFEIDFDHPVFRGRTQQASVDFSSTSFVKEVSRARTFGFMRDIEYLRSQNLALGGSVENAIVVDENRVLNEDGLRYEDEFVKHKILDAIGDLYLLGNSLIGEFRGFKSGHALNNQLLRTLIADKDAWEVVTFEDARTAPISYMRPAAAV
Briefly: LpxC Enzymatic Activity Assay. As for the experimental part: The experimental procedure is briefly described as follows: The test compound was first dissolved in DMSO to prepare a 10 mM stock solution. The reaction was carried out in a 96-well microplate. First, 20 μL of recombinant Pseudomonas aeruginosa LpxC (purchased from Signalway Antibody, product number AP74647-2) was added to each well, with a final concentration of 5 nM. 5 μL of the compound to be tested was then added, and the compound was diluted 4 times to 8 concentration points with a concentration range of 0.61-10,000 nM. 5 μL of LpxC substrate UDP-3-O—(R-3-hydroxydecanoyl)-GlcNAc (purchased from Biosynth Carbosynth, product number: mu75071) was added, with a final concentration of the substrate of 10 μM. The plate was incubated at 25° C. for 120 minutes. Then 20 μL of 2.0 mg/mL fluorescamine (purchased from sigmaaldrich, product number: F9015, solvent: 1:1 dimethylformamide/acetonitrile) was added to the reaction system, and mixed well for 10 minutes of reaction. Finally, 50 μL of 200 mM sodium phosphate buffer (pH 8.0) was added to terminate the reaction. Reading was carried out using a microplate reader (BMG), and the excitation and emission wavelengths were 390 and 495 nm respectively.

In general, pIC50 refers to the IC50 on a negative log10 scale, so that one unit is a factor of ten. In turn, `C[C@H](O)c1nccn1Cc1cc(-c2ccc(C#Cc3ccc(NC4CCOCC4)cc3)cc2)on1` [US20240382465, Example 66] gave a pIC50 of 7.17.

In turn, `C[C@H](O)c1nccn1Cc1cc(-c2ccc(C#Cc3ccc(N4CCN(C)CC4)cc3)cc2)on1` [US20240382465, Example 65] showed a negative-log IC50 (pIC50) of 7.19.
